Columns and labels:
Melanopsin = biological target: T1, Melanopsin (Homo sapiens, UniProt Q9UHM6); test: Melanopsin (OPN4) Presto-Tango luciferase screen; type: cell-based; details: HTLA cells, LED light, agonist alone, read-out: EC50 of receptor activation by the ligand
T1 construct: V2 tail; expressed in transfected cells; host or cells: HTLA cells (HEK293 cell line with tTA-dependent luciferase reporter and β-arrestin2-TEV fusion)
T1 sequence (Q9UHM6 1-478): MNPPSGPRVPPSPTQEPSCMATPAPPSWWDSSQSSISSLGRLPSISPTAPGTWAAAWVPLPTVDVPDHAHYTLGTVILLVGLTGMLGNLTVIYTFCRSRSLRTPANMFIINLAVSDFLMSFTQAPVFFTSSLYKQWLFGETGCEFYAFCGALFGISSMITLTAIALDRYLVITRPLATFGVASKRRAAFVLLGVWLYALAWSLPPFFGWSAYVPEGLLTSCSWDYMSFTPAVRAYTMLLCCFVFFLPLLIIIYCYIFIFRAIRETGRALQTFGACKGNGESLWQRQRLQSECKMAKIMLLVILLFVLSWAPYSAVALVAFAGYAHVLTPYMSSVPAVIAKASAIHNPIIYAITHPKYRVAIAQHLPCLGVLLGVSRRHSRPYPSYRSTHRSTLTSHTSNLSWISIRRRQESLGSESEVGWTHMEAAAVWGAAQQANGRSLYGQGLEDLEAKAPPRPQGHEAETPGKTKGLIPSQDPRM
Text: (§1) Presto-Tango Assay: Empty Tango plasmid was generated from Addgene plasmid #66225. Melanopsin was amplified by pcr from pAAV-GFAP104-melanopsin-mCherry (Addgene plasmid #122630) and AVPR1a from hV1aR-GFP (Addgene plasmid #67846) and cloned to generate OPN4- and AVPR1a-Tango plasmid. HTLA cells (a HEK293 cell line stably expressing a tTA-dependent luciferase reporter and a β-arrestin2-TEV fusion gene—a gift from Bryan Roth) was transfected with OPN4-Tango or AVPR1A-Tango plasmids. The HTLA Cells are grown in DMEM supplemented with 10% FBS, 100 U/ml penicillin and 100 μg/ml streptomycin, 2 μg/ml puromycin and 100 μg/ml hygromycin B (HTLA medium) in a humidified atmosphere at 37 °C in 5% CO2 (HTLA Medium).
(§2) Luciferase activity was measured using Bright-Glo Luciferase (Promega #E2160) assay.
(§3) Day 1: HTLA cells were plated in at 9 to 10×10^6 cells per 100 mm cell culture dish in HTLA Medium.
(§4) Day 2: The cells were transfected using the Polyethylenimine method. […]
(§5) Day 5: The medium containing drug solutions were removed from the wells (by aspiration or shaking), and 50 μL per well of Bright-Glo solution (Promega) diluted 10-fold in filter-sterilized assay buffer, which consisted of 20 mM HEPES and 1×HBSS at pH 7.4 and 1 mM Glucose were added to each well. After incubation for 15 to 20 minutes at room temperature, luminescence was counted in a BioTek-Flx-800 luminescence counter.

[1] = biological target: T2, AVPR1a (human vasopressin 1a receptor, V1AR) (Homo sapiens, UniProt P37288); test: AVPR1a Presto-Tango luciferase screen; type: cell-based
T2 construct: V2 tail; expressed in transfected cells; host or cells: HTLA cells (HEK293 cell line with tTA-dependent luciferase reporter and β-arrestin2-TEV fusion)
T2 sequence (P37288 whole entry, the tested form may be a part): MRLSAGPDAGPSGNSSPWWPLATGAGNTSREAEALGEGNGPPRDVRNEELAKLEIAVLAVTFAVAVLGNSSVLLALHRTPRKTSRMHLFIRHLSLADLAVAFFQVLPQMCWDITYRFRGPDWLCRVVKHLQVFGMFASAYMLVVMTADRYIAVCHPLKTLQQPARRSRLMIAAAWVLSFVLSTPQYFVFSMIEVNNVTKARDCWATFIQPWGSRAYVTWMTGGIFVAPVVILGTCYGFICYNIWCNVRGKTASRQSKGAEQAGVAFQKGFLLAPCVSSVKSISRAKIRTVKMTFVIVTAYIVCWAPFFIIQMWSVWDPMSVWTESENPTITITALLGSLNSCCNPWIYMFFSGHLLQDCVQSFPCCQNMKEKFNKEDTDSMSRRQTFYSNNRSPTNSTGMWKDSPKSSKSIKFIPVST
Text: as §1, §2, §3, §4, §5

| SMILES | EC50 (Melanopsin) | IC50 ([1]; 5 nM Arginine Vasopressin, 16 hrs illumination (FIG. 9), inhibitor, read-out: EC50 (allosteric inhibition of AVPR1a, ratio of luciferase activity over positive control)) | V1AR inhibition validated by in vitro experiments ([1]; in words) |
| --- | --- | --- | --- |
| CC1=C(/C=C/C(C)=C\C=C\C(C)=C\C=O)C(C)(C)CCC1 [9-cis-Retinol] | ~250 nM |  |  |
| Cc1ccc2[nH]cc(CCNC(=O)Cn3c(=O)c(=O)n(Cc4ccccc4)c4ccccc43)c2c1 [MolPort-007-880-661] |  | 360 nM | effective V1AR inhibitors |

From patent US20260345594A1, “Methods and Compositions for Controlling Jet Lag, Chronotype, or Circadian Rhythm” (University of Pittsburgh - Of the Commonwealth System of …, priority 2022, published 2026)
